Laboratory results from patent US8476434B2, “Protein kinase modulators and method of use” (Amgen Inc., priority 2004, dated 2013).
pIC50: −log10 of the molar value.

These molecules were tested against T1, LCK KD GST (225-509) (Homo sapiens, UniProt P06239) (assay: LCK Homogenous Time Resolved Fluorescent (HTRF) kinase assay).
T1 construct: LCK KD GST (225-509); GST
T1 sequence (P06239 225-509): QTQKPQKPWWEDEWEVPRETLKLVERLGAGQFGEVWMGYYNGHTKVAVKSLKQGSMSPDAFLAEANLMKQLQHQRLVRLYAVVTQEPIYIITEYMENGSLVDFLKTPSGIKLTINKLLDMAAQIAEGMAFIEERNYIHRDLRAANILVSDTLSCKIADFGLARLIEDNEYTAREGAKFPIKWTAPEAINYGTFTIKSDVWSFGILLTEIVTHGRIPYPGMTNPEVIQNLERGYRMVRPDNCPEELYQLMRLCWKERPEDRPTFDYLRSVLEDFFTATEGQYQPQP
Assay type: biochemical
Procedure: The LCK HTRF assay begins with LCK in the presence of ATP phosphorylating the biotinylated peptide Gastrin. The reaction incubates for 90 min. To quench the assay detection reagents are added which both stop the reaction by diluting out the enzyme and chelating the metals due to the presence of EDTA. Once the detection reagents are added the assay incubates for 30 min to allow for equilibration of the detection reagents.
Buffer conditions are as follows: 50 mM HEPES pH 7.5, 50 mM NaCl, 20 mM MgCl, 5 mM MnCl, 2 mM DTT, 0.05% BSA.
The assay is quenched and stopped with 160 μL of detection reagent. Detection reagents are as follows: Buffer made of 50 mM Tris, pH 7.5, 100 mM NaCl, 3 mM EDTA, 0.05% BSA, 0.1% Tween20.
The assay plate is read in either a Discovery or a RubyStar.
`CNc1cc(-c2cccnc2Oc2cc(NC(=O)c3cccc(C(C)C)c3)ccc2C)ccn1` [3-(1-methylethyl)-N-(4-methyl-3-((2′-(methylamino)-3,4′-bipyridin-2-yl)oxy)phenyl)benzamide] was tested, and the pIC50 was > 6.00.
`CNc1ncnc(-c2cccnc2Oc2cc(C(=O)Nc3cc(C4CCCCC4)ccc3OC)ccc2C)n1` [N-(5-cyclohexyl-2-(methyloxy)phenyl)-4-methyl-3-((3-(4-(methylamino)-1,3,5-triazin-2-yl)-2-pyridinyl)oxy)benzamide] was tested, and the pIC50 was > 6.00.
For `CNc1nccc(-c2cccnc2Oc2ccc(NC(=O)Nc3cc(C(F)(F)F)ccc3F)c3ccccc23)n1` [N-(2-fluoro-5-(trifluoromethyl)phenyl)-N′-(4-((3-(2-(methylamino)-4-pyrimidinyl)-2-pyridinyl)oxy)-1-naphthalenyl)urea], the pIC50 was > 6.00.
In the case of `CNc1nccc(-c2cccnc2Oc2ccc(NC(=O)Nc3cc(C(C)(C)C)ccc3OC)cc2C)n1` [N-(5-(1,1-dimethylethyl)-2-(methyloxy)phenyl)-N′-(3-methyl-4-((3-(2-(methylamino)-4-pyrimidinyl)-2-pyridinyl)oxy)phenyl)urea], the pIC50 was > 6.00.
In the case of `COc1ccc(C2CCCCC2)cc1NC(=O)c1ccc(C)c(Oc2ncccc2-c2ncnc(NCCCCN(C)C)n2)c1` [N-(5-cyclohexyl-2-(methyloxy)phenyl)-3-((3-(4-((4-(dimethylamino)butyl)amino)-1,3,5-triazin-2-yl)-2-pyridinyl)oxy)-4-methylbenzamide], the pIC50 was > 6.00.
With `CNc1nccc(-c2cccnc2Oc2ccc(NC(=O)Nc3cc(C4CCN(C)CC4)cc(C(F)(F)F)c3)cc2C)n1` [N-(3-methyl-4-((3-(2-(methylamino)-4-pyrimidinyl)-2-pyridinyl)oxy)phenyl)-N′-(3-(1-methyl-4-piperidinyl)-5-(trifluoromethyl)phenyl)urea] the pIC50 was > 6.00.
In the case of `CNc1nccc(-c2cccnc2Oc2cc(C(=O)N[C@H](C)c3ccccc3)ccc2C)n1` [4-methyl-3-((3-(2-(methylamino)-4-pyrimidinyl)-2-pyridinyl)oxy)-N-((1R)-1-phenylethyl)benzamide], the pIC50 was > 6.00.
With `CNc1nccc(-c2cccnc2Oc2cc(Br)cc(C(=O)Nc3cc(C(F)(F)F)ccc3N(C)[C@H]3CCN(C)C3)c2)n1` [3-bromo-5-((3-(2-(methylamino)-4-pyrimidinyl)-2-pyridinyl)oxy)-N-(2-(methyl((3S)-1-methyl-3-pyrrolidinyl)amino)-5-(trifluoromethyl)phenyl)benzamide] the pIC50 was > 6.00.
In the case of `CNc1nccc(-c2cccnc2Oc2ccc(F)c(C(=O)Nc3cccc(C(C)C)c3)c2)n1` [2-fluoro-5-((3-(2-(methylamino)-4-pyrimidinyl)-2-pyridinyl)oxy)-N-(3-(1-methylethyl)phenyl)benzamide], the pIC50 was > 6.00.
In the case of `CNc1ncnc(-c2cccnc2Oc2cc(NC(=O)c3cccc(OC(F)(F)F)c3)ccc2C)n1` [N-(4-methyl-3-((3-(4-(methylamino)-1,3,5-triazin-2-yl)-2-pyridinyl)oxy)phenyl)-3-((trifluoromethyl)oxy)benzamide], the pIC50 was > 6.00.
With `CNc1ncnc(-c2cccnc2Oc2ccc(NC(=O)Nc3cc(C(F)(F)F)ccc3N3CC[C@H](N(C)C)C3)c3ccccc23)n1` [N-(2-((3S)-3-(dimethylamino)-1-pyrrolidinyl)-5-(trifluoromethyl)phenyl)-N′-(4-((3-(4-(methylamino)-1,3,5-triazin-2-yl)-2-pyridinyl)oxy)-1-naphthalenyl)urea] the pIC50 was > 6.00.
For `Cc1ccc(C(=O)Nc2cccc(Cl)c2)cc1Nc1ncccc1-c1ccncn1` [N-(3-chlorophenyl)-4-methyl-3-((3-(4-pyrimidinyl)-2-pyridinyl)amino)benzamide], the pIC50 was > 6.00.
`CNc1nccc(-c2cccnc2Oc2cc(C(=O)Nc3cc(-c4ccccc4)ccc3OC)ccc2C)n1` [4-methyl-3-((3-(2-(methylamino)-4-pyrimidinyl)-2-pyridinyl)oxy)-N-(4-(methyloxy)-1,1′-biphenyl-3-yl)benzamide] was tested, and the pIC50 was > 6.00.
In the case of `CNc1nccc(-c2cccnc2Oc2cc(C(=O)Nc3cc(C(F)(F)F)ccc3N3CCCCC3)ccc2Cl)n1` [4-chloro-3-((3-(2-(methylamino)-4-pyrimidinyl)-2-pyridinyl)oxy)-N-(2-(1-piperidinyl)-5-(trifluoromethyl)phenyl)benzamide], the pIC50 was > 6.00.
In the case of `CNc1ncnc(-c2cccnc2Oc2cc(C(=O)Nc3cc(C(F)(F)F)ccc3N(C)CCCN(C)C)ccc2C)n1` [N-(2-((3-(dimethylamino)propyl)(methyl)amino)-5-(trifluoromethyl)phenyl)-4-methyl-3-((3-(4-(methylamino)-1,3,5-triazin-2-yl)-2-pyridinyl)oxy)benzamide], the pIC50 was > 6.00.
For `CNc1nccc(-c2cccnc2Oc2cc(C(=O)Nc3cc(C(F)(F)F)ccc3N3CCCCC3)ccc2F)n1` [4-fluoro-3-((3-(2-(methylamino)-4-pyrimidinyl)-2-pyridinyl)oxy)-N-(2-(1-piperidinyl)-5-(trifluoromethyl)phenyl)benzamide], the pIC50 was > 6.00.
For `CNc1nccc(-c2cccnc2Oc2ccc(NC(=O)Nc3cc(C(F)(F)F)ccc3OCCN3CCCC3)cc2C)n1` [N-(3-methyl-4-((3-(2-(methylamino)-4-pyrimidinyl)-2-pyridinyl)oxy)phenyl)-N′-(2-((2-(1-pyrrolidinyl)ethyl)oxy)-5-(trifluoromethyl)phenyl)urea], the pIC50 was > 6.00.
For `CNc1nccc(-c2cccnc2Oc2cc(C(=O)Nc3cccc(OCc4ccccc4)c3)ccc2C)n1` [4-methyl-3-((3-(2-(methylamino)-4-pyrimidinyl)-2-pyridinyl)oxy)-N-(3-((phenylmethyl)oxy)phenyl)benzamide], the pIC50 was > 6.00.
With `Cc1ccc(C(=O)Nc2ccc(C(F)(F)F)cc2)cc1Nc1ncccc1-c1ccncn1` [4-methyl-3-((3-(4-pyrimidinyl)-2-pyridinyl)amino)-N-(4-(trifluoromethyl)phenyl)benzamide] the pIC50 was > 6.00.
In the case of `Cc1ccc(C(=O)Nc2cccc(C(C)C)c2)cc1Oc1ncccc1-c1ncnc(NCCCN2CCOCC2)n1` [4-methyl-N-(3-(1-methylethyl)phenyl)-3-((3-(4-((3-(4-morpholinyl)propyl)amino)-1,3,5-triazin-2-yl)-2-pyridinyl)oxy)benzamide], the pIC50 was > 6.00.
With `CNc1nccc(-c2cccnc2Oc2cc(C(=O)Nc3cccc(Cc4ccccc4)c3)ccc2C)n1` [4-methyl-3-((3-(2-(methylamino)-4-pyrimidinyl)-2-pyridinyl)oxy)-N-(3-(phenylmethyl)phenyl)benzamide] the pIC50 was > 6.00.
For `CNc1nccc(-c2cccnc2Oc2cccc(NC(=O)c3cc(Cl)cc(Cl)c3)c2)n1` [3,5-dichloro-N-(3-((3-(2-(methylamino)-4-pyrimidinyl)-2-pyridinyl)oxy)phenyl)benzamide], the pIC50 was > 6.00.
For `CNc1nccc(-c2cccnc2Oc2ccc(F)c(C(=O)Nc3cc(C(F)(F)F)ccc3N(C)C3CCN(C)C3)c2)n1` (centres unmarked) [2-fluoro-5-((3-(2-(methylamino)-4-pyrimidinyl)-2-pyridinyl)oxy)-N-(2-(methyl(1-methyl-3-pyrrolidinyl)amino)-5-(trifluoromethyl)phenyl)benzamide], the pIC50 was > 6.00.
For `CNc1ncnc(-c2cccnc2Oc2cc(C(=O)Nc3cc(C(C)(C)C)on3)ccc2C)n1` [N-(5-(1,1-dimethylethyl)-3-isoxazolyl)-4-methyl-3-((3-(4-(methylamino)-1,3,5-triazin-2-yl)-2-pyridinyl)oxy)benzamide], the pIC50 was > 6.00.
In the case of `Cc1ccc(C(=O)N[C@H](C)C2CCCCC2)cc1Nc1ncccc1-c1ccncn1` [N-((1R)-1-cyclohexylethyl)-4-methyl-3-((3-(4-pyrimidinyl)-2-pyridinyl)amino)benzamide], the pIC50 was > 6.00.
With `CNc1cc(-c2cccnc2Oc2cc(C(=O)Nc3cc(C4CCCCC4)ccc3OC)ccc2C)ccn1` [N-(5-cyclohexyl-2-(methyloxy)phenyl)-4-methyl-3-((2′-(methylamino)-3,4′-bipyridin-2-yl)oxy)benzamide] the pIC50 was > 6.00.
In the case of `CNc1ncnc(-c2cccnc2Oc2ccc(F)c(C(=O)Nc3cc(C(F)(F)C(F)(F)F)ccc3N(C)CCCN(C)C)c2)n1` [N-(2-((3-(dimethylamino)propyl)(methyl)amino)-5-(pentafluoroethyl)phenyl)-2-fluoro-5-((3-(4-(methylamino)-1,3,5-triazin-2-yl)-2-pyridinyl)oxy)benzamide], the pIC50 was > 6.00.
`CNc1nccc(-c2cc(N3CCN(C)CC3)cnc2Oc2cc(C(=O)Nc3cccc(C(C)C)c3)ccc2C)n1` [4-methyl-3-((3-(2-(methylamino)-4-pyrimidinyl)-5-(4-methyl-1-piperazinyl)-2-pyridinyl)oxy)-N-(3-(1-methylethyl)phenyl)benzamide] was tested, and the pIC50 was > 6.00.
For `CNc1nccc(-c2cccnc2Oc2ccc(NC(=O)Nc3cc(Cl)ccc3N(C)CCCN(C)C)cc2C)n1` [N-(5-chloro-2-((3-(dimethylamino)propyl)(methyl)amino)phenyl)-N′-(3-methyl-4-((3-(2-(methylamino)-4-pyrimidinyl)-2-pyridinyl)oxy)phenyl)urea], the pIC50 was > 6.00.
`CNc1nccc(-c2cccnc2Oc2cc(C(=O)Nc3cc(C(C)(C)C)nn3-c3ccccc3)ccc2C)n1` [N-(3-(1,1-dimethylethyl)-1-phenyl-1H-pyrazol-5-yl)-4-methyl-3-((3-(2-(methylamino)-4-pyrimidinyl)-2-pyridinyl)oxy)benzamide] was tested, and the pIC50 was > 6.00.
With `CNc1nccc(-c2cccnc2Oc2cc(C(=O)Nc3cc(C(F)(F)F)ccc3N3CCCCC3)ccc2C)n1` the pIC50 was > 6.00.
For `COc1ccc(C(F)(F)F)cc1NC(=O)c1ccc(C)c(Oc2ncccc2-c2ccncn2)c1` [4-methyl-N-(2-(methyloxy)-5-(trifluoromethyl)phenyl)-3-((3-(4-pyrimidinyl)-2-pyridinyl)oxy)benzamide], the pIC50 was > 6.00.
